# Assay results from patent US4175081A, “5-Substituted thiadiazole ureas” (priority 1977, dated 1979).
# Experiments:
# Turnip (TP) [1] = assay: Post-emergence herbicide test; assay type: in vivo, Brassica sp.; settings: Brassica rapa, post-emergence, 336 h, two weeks after treatment
# In short: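 A greenhouse post-emergence herbicide test on turnip. Seeds were sown on the surface of potting soil in 3' plastic pots, lightly covered with screened soil and watered from below. Planting was timed so seedlings had 1 or 2 true leaves above the cotyledons at spraying, done in a hood with a fixed nozzle. Control or injury was scored by eye after two weeks.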
# Corn (CN) = assay: Pre-emergence herbicide test; assay type: in vivo; settings: Zea mays, 336 h, two weeks after treatment
# In short: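 Visual injury/control ratings were made 2 weeks post-spray on corn pots seeded (4 seeds, seed-diameter depth) the day before treatment. Application was a belt-hood spray of 38 gal/acre delivering 8 lbs active per acre, with a 4 lbs/acre rate also formulated. Watering was by sub-irrigation throughout.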
# Johnson grass (JG) = assay: Pre-emergence herbicide test; assay type: in vivo, Sorgum helepense; settings: Sorghum halepense, 336 h, two weeks after treatment
# In short: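 Visual injury or control rating two weeks post-treatment, after pre-emergence spray of 8 or 4 lbs active per acre (38 gal/acre) onto pots sown the previous day. Greenhouse watering by sub-irrigation only.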
# Bean (BN) [2] = assay: Post-emergence herbicide test; assay type: in vivo, Phaseolus vulgaris var. Black Valentine; settings: Phaseolus vulgaris, post-emergence, 336 h, two weeks after treatment
# In short: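 Bean seedlings (Phaseolus vulgaris var. Black Valentine) were grown in potting soil in 3' pots until the primary leaves expanded. They were then sprayed under a hood with a removable belt and fixed nozzle, using 50 ml formulations. Afterward they were returned to the greenhouse and watered only by sub-irrigation. Percent control was judged visually two weeks after treatment.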
# Cotton (CT) [3] = assay: Pre-emergence herbicide test; assay type: in vivo, Gossypium hirsutum var. DPL smooth leaf; settings: Gossypium hirsutum, 336 h, two weeks after treatment
# In short: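 Visual injury/control ratings were taken at two weeks post-spray. Pots seeded a day earlier received compound pre-emergence at 8 lbs/acre, or 4 lbs/acre, in a 38 gallon/acre spray volume, and were then held in the greenhouse, watered only from below.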
# Amaranth pigweed (PW) = assay: Pre-emergence herbicide test; assay type: in vivo, Amaranthus retroflexus; settings: 336 h, two weeks after treatment
# In short: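 Visual injury or control ratings were made at two weeks on pre-emergence pots, sub-irrigated in the greenhouse. Seeds were sown a day before a hood spray delivering 8 lbs/acre (or 4 lbs/acre) of compound in 38 gallons per acre.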
# Bean (BN) [4] = assay: Pre-emergence herbicide test; assay type: in vivo, Phaseolus vulgaris var. Black Valentine; settings: Phaseolus vulgaris, 336 h, two weeks after treatment
# In short: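 Visual injury/control ratings were taken two weeks post-spray on sub-irrigated Phaseolus vulgaris var. Black Valentine. Pots were sown a day before treatment. Pre-emergence spray delivered 8 lbs actual compound per acre (or 4 lbs/acre) at 38 gallons per acre.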
# Crabgrass (CG) [5] = assay: Post-emergence herbicide test; assay type: in vivo, Digitaria sanquinalis; settings: Digitaria sanguinalis, post-emergence, 336 h, two weeks after treatment
# In short: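 Crabgrass (Digitaria sanquinalis) was surface seeded individually in 3' plastic pots of potting soil, covered with screened soil, and watered by sub-irrigation in greenhouse trays. Planting was staggered so seedlings reached the target stage together. Post-emergence sprays were applied in a hood with a removable belt and fixed nozzle, and control was visually rated two weeks after treatment.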
# Barnyard grass (BG) = assay: Pre-emergence herbicide test; assay type: in vivo; settings: Echinochloa crus-galli, 336 h, two weeks after treatment
# In short: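 Greenhouse pre-emergence spray test: pots seeded one day before treatment received compound at rates of 8 or 4 lb/acre (38 gal/acre). Visual injury/control scores for Echinochloa crus-galli taken at two weeks, with watering by sub-irrigation only.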
# Turnip (TP) [6] = assay: Pre-emergence herbicide test; assay type: in vivo, Brassica sp.; settings: Brassica rapa, pre-emergence, 336 h, two weeks after treatment
# In short: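 In this pre-emergence greenhouse test, turnip was seeded on the surface of potting soil in 3' plastic pots, lightly covered with screened soil, and watered from below. One day later the pots were sprayed in a belt-fed spray hood. Watering continued only by sub-irrigation, and percent control was visually scored two weeks after treatment.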
# Crabgrass (CG) [7] = assay: Pre-emergence herbicide test; assay type: in vivo, Digitaria sanquinalis; settings: Digitaria sanguinalis, pre-emergence, 336 h, two weeks after treatment
# In short: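 Crabgrass (Digitaria sanquinalis) was surface seeded in 3' plastic pots of potting soil, covered with screened soil, and watered by sub-irrigation in greenhouse trays. Pots were seeded one day before spraying in a hood with a moving belt and fixed nozzle. Plants stayed in the greenhouse on sub-irrigation, and pre-emergence control was rated visually two weeks after treatment.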
# Cotton (CT) [8] = assay: Post-emergence herbicide test; assay type: in vivo, Gossypium hirsutum var. DPL smooth leaf; settings: Gossypium hirsutum, post-emergence, 336 h, two weeks after treatment
# In short: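 This greenhouse post-emergence test measured how well spray treatments controlled cotton. Seedlings of Gossypium hirsutum var. DPL smooth leaf, with expanded cotyledons and a first true leaf 1' in length, were sprayed with 50 ml formulations in a belt-fed spray hood. They were then returned to the greenhouse and watered only by sub-irrigation. Injury was scored visually as % control after two weeks.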
structure (smiles),measurement,setting,value
CCSc1nnc(N(C)C(=O)NC)s1 [Example 89],pest or weed control at 560.425 g/ha,Turnip (TP) [1]; 0.5 lb/acre,100%
same,pest or weed control at 1120.85 g/ha,Turnip (TP) [1]; 1 lb/acre,100%
same,pest or weed control at 2241.7 g/ha,Turnip (TP) [1]; 2 lb/acre,100%
same,pest or weed control at 4483.4 g/ha,Turnip (TP) [1]; 4 lb/acre,100%
same,pest or weed control at 560.425 g/ha,Corn (CN); 0.5 lb/acre,10%
same,pest or weed control at 1120.85 g/ha,Corn (CN); 1 lb/acre,50%
same,pest or weed control at 2241.7 g/ha,Corn (CN); 2 lb/acre,40%
same,pest or weed control at 4483.4 g/ha,Corn (CN); 4 lb/acre,50%
same,pest or weed control at 560.425 g/ha,Johnson grass (JG); 0.5 lb/acre,40%
same,pest or weed control at 1120.85 g/ha,Johnson grass (JG); 1 lb/acre,50%
same,pest or weed control at 2241.7 g/ha,Johnson grass (JG); 2 lb/acre,80%
same,pest or weed control at 4483.4 g/ha,Johnson grass (JG); 4 lb/acre,70%
same,pest or weed control at 560.425 g/ha,Bean (BN) [2]; 0.5 lb/acre,90%
same,pest or weed control at 1120.85 g/ha,Bean (BN) [2]; 1 lb/acre,100%
same,pest or weed control at 2241.7 g/ha,Bean (BN) [2]; 2 lb/acre,100%
same,pest or weed control at 4483.4 g/ha,Bean (BN) [2]; 4 lb/acre,100%
same,pest or weed control at 560.425 g/ha,Cotton (CT) [3]; 0.5 lb/acre,10%
same,pest or weed control at 1120.85 g/ha,Cotton (CT) [3]; 1 lb/acre,10%
same,pest or weed control at 2241.7 g/ha,Cotton (CT) [3]; 2 lb/acre,10%
same,pest or weed control at 4483.4 g/ha,Cotton (CT) [3]; 4 lb/acre,50%
same,pest or weed control at 560.425 g/ha,Amaranth pigweed (PW); 0.5 lb/acre,70%
same,pest or weed control at 1120.85 g/ha,Amaranth pigweed (PW); 1 lb/acre,100%
same,pest or weed control at 2241.7 g/ha,Amaranth pigweed (PW); 2 lb/acre,100%
same,pest or weed control at 4483.4 g/ha,Amaranth pigweed (PW); 4 lb/acre,100%
same,pest or weed control at 560.425 g/ha,Bean (BN) [4]; 0.5 lb/acre,10%
same,pest or weed control at 1120.85 g/ha,Bean (BN) [4]; 1 lb/acre,10%
same,pest or weed control at 2241.7 g/ha,Bean (BN) [4]; 2 lb/acre,10%
same,pest or weed control at 4483.4 g/ha,Bean (BN) [4]; 4 lb/acre,10%
same,pest or weed control at 560.425 g/ha,Crabgrass (CG) [5]; 0.5 lb/acre,40%
same,pest or weed control at 1120.85 g/ha,Crabgrass (CG) [5]; 1 lb/acre,50%
same,pest or weed control,Crabgrass (CG) [5]; 2 lb/acre,90%
same,pest or weed control at 4483.4 g/ha,Crabgrass (CG) [5]; 4 lb/acre,90%
same,pest or weed control at 560.425 g/ha,Barnyard grass (BG); 0.5 lb/acre,30%
same,pest or weed control at 1120.85 g/ha,Barnyard grass (BG); 1 lb/acre,80%
same,pest or weed control at 2241.7 g/ha,Barnyard grass (BG); 2 lb/acre,80%
same,pest or weed control at 4483.4 g/ha,Barnyard grass (BG); 4 lb/acre,100%
same,pest or weed control at 560.425 g/ha,Turnip (TP) [6]; 0.5 lb/acre,30%
same,pest or weed control at 1120.85 g/ha,Turnip (TP) [6]; 1 lb/acre,70%
same,pest or weed control at 2241.7 g/ha,Turnip (TP) [6]; 2 lb/acre,80%
same,pest or weed control at 4483.4 g/ha,Turnip (TP) [6]; 4 lb/acre,90%
same,pest or weed control at 560.425 g/ha,Crabgrass (CG) [7]; 0.5 lb/acre,50%
same,pest or weed control at 1120.85 g/ha,Crabgrass (CG) [7]; 1 lb/acre,90%
same,pest or weed control at 2241.7 g/ha,Crabgrass (CG) [7]; 2 lb/acre,90%
same,pest or weed control at 4483.4 g/ha,Crabgrass (CG) [7]; 4 lb/acre,100%
same,pest or weed control at 560.425 g/ha,Cotton (CT) [8]; 0.5 lb/acre,90%
same,pest or weed control at 1120.85 g/ha,Cotton (CT) [8]; 1 lb/acre,100%
same,pest or weed control at 2241.7 g/ha,Cotton (CT) [8]; 2 lb/acre,100%
same,pest or weed control at 4483.4 g/ha,Cotton (CT) [8]; 4 lb/acre,100%
